Test results published in PubChem BioAssay AID743283 (The Scripps Research Institute Molecular Screening Center, 2014).
Active and inactive are the calls of the source.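 The calls were made as follows: active = IC50 at or below 10 µM; inactive = IC50 above 10 µM.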

tested on: HEK293 Gal4-VP16 luciferase reporter counterscreen; assay: VP16-driven transactivation reporter suppression potency – cell-based, luminescence, HEK293, powder samples, round 000, counter-screen for COUP-TFII inhibitor project, late-stage follow-up (AID 743283)

SMILES | IC50
Cc1nn(C)c(C)c1CN(C)S(=O)(=O)c1ccc2ccccc2c1 | > 85.4 µM (inactive)
O=S(=O)(NCC1CCCO1)c1ccc(-c2ccc(S(=O)(=O)NCC3CCCO3)cc2)cc1 (centres undefined) | > 85.4 µM (inactive)
COc1ccc(CN(C)c2ccc(S(=O)(=O)N3CCN(C)CC3)cc2[N+](=O)[O-])cc1OC | > 85.4 µM (inactive)
CC(=O)Nc1ccccc1OCC(=O)c1cc(C)n(Cc2cccs2)c1C | 8.67 µM
Cc1sc2ncnc(NCC3COc4ccccc4O3)c2c1C (centres undefined) | > 85.4 µM (inactive)
Cc1cc(C)c(S(=O)(=O)NCc2ccncc2)c(C)c1 | > 85.4 µM (inactive)
Cc1cc(-n2c(C)cc(C(=O)CSc3ncnc4ccccc34)c2C)no1 | > 85.4 µM (inactive)
O=C(Nc1ccncc1)c1ccc(Cl)c(S(=O)(=O)N2CCc3ccccc32)c1 | 37 µM (inactive)
Cc1ccc(S(=O)(=O)CC2CSc3nc4ccccc4n32)cc1 (centres undefined) | > 85.4 µM (inactive)
COc1ccc(NS(=O)(=O)c2ccc(-c3coc(C)n3)cc2)cc1OC | > 85.4 µM (inactive)
Cc1oc(-c2ccc(Cl)cc2)nc1CS(=O)CC(=O)NCCCN1CCN(Cc2ccccc2)CC1 (centres undefined) | > 28.5 µM (inactive)
CCOC(=O)C1CCCN(S(=O)(=O)c2ccc(S(=O)(=O)N(CC)CC)cc2)C1 (centres undefined) | > 85.4 µM (inactive)
CC1Cc2cc(-c3csc(NC(=O)Cc4cccs4)n3)ccc2N1S(C)(=O)=O (centres undefined) | 11.5 µM (inactive)
COc1ccc(CCNc2ncnc3sccc23)cc1OC | > 85.4 µM (inactive)
COc1ccc(OC)c(CCNC(=O)Cn2nc(C)c3c(C)n(-c4ccc(C)cc4)nc3c2=O)c1 | > 28.5 µM (inactive)
CCC1CCCCN1C(=O)c1cc(COc2ccc3ncccc3c2)on1 (centres undefined) | > 85.4 µM (inactive)
Cc1ccc(OCCN2CCN(c3ncnc4sc(C)c(C)c34)CC2)cc1 | > 85.4 µM (inactive)
COc1ccc(NS(=O)(=O)c2cccc(NC(=O)c3ccc(Cl)nc3)c2)cc1 | > 28.5 µM (inactive)
COc1ccc(C2=Nn3c([n+](C)c4ccccc43)SC2)cc1 | > 85.4 µM (inactive)
CCOc1cc(S(=O)(=O)NCc2ccncc2)ccc1Cl | > 85.4 µM (inactive)
CC(Nc1ncnc2ccccc12)c1ccccc1 (centres undefined) | > 85.4 µM (inactive)
COc1ccc(CCNc2ncnc3sc(C)cc23)cc1OC | 30.2 µM (inactive)
CCOC(=O)N1CCN(C(=O)CSCC(=O)Nc2nc(-c3ccc(-c4ccccc4)cc3)cs2)CC1 | 33.9 µM (inactive)
Cc1cc(-n2nc3ccccc3n2)c2oc(SCC(=O)NC(C)(C)C)nc2c1 | 79.3 µM (inactive)
Cc1sc2ncnc(NCCc3ccc(S(N)(=O)=O)cc3)c2c1C | > 85.4 µM (inactive)
CCN(CC)S(=O)(=O)c1cccc(NC(=O)CNc2cccc(S(=O)(=O)N3CCCC3)c2)c1 | > 85.4 µM (inactive)
Cn1nccc1C(=O)NC1CCCc2c1cnn2-c1ccc(C(C)(C)C)cc1 (centres undefined) | > 85.4 µM (inactive)
Clc1ccc(OCCN2CCN(c3ncnc4sccc34)CC2)cc1 | > 85.4 µM (inactive)
CN(CC1CCCO1)S(=O)(=O)c1ccc(C(=O)Nc2nc3cc4c(cc3s2)OCO4)cc1 (centres undefined) | > 42.7 µM (inactive)
